This note sets out measurements from ChEMBL document CHEMBL3600356, “Optimization of permethyl ningalin B analogs as P-glycoprotein inhibitors” (Bioorg Med Chem, 2015).

≈ marks a conversion by molar mass, not a printed value.

The nature of series [1]: Cytotoxicity against human MDA435/LCC6MDR cells assessed as cell survival at 1 uM after 3 days by MTS/PMS assay. The conditions noted are these: 72 h. Type of series: ADME, cell-based.
The nature of series [2]: Solubility of the compound in phosphate buffer at pH 7.4 by capillary electrophoresis system. It is filed as physicochemical.
A short description of series [3]: Cytotoxicity against human MDA435/LCC6 cells assessed as cell survival at 1 uM after 3 days by MTS/PMS assay. It is filed as cell-based. Particulars: mda-435/lcc6, 72 h.
The species named for the next series is Homo sapiens. Description: Modulation of p-glycoprotein in human MDA435/LCC6MDR cells assessed as ratio of IC50 for paclitaxel in absence of drug to IC50 for paclitaxel in presence of 1 uM of drug after 5 days by MTS assay. It is filed as cell-based. (Formazan colour is commonly taken as a measure of viable cells.)

For `COc1ccc(C2=C(c3ccc(OC)c(OC)c3)C(=O)N(C(=O)c3ccc(OCc4ccccc4)c(OC)c3)C2=O)cc1OC`, the Activity entry in series [1] and in series [3] was “Non-toxic” each time. The solubility in series [2] turned out to be 0.405 µg/mL (≈ 0.664 µM).
As to `COc1ccc(C2=C(c3ccc(OC)c(OC)c3)C(=O)N(C(=O)N3CCN(CC(=O)c4ccc(OCc5ccccc5)c(OC)c4)CC3)C2=O)cc1OC`, the Ratio IC50 in the series listed under Homo sapiens came out at 5.4. In addition, the Activity result in series [1] and in series [3] was “Non-toxic” each time.
As for `CCCCC1OC(=O)c2cc(NC(=O)N3C(=O)C(c4ccc(OC)c(OC)c4)=C(c4ccc(OC)c(OC)c4)C3=O)ccc21` (stereo not drawn), the Ratio IC50 in the series listed under Homo sapiens amounted to 2.4. Further, the Activity entry in series [1] and in series [3] was “Non-toxic” throughout.
In the case of `COc1ccc(C2=C(c3ccc(OC)c(OC)c3)C(=O)N(CC(=O)c3cc(Br)c(OCc4ccccc4)cc3OCCO)C2=O)cc1OC`, in the series listed under Homo sapiens, the Ratio IC50 stood at 21.4. Besides, the Activity result in series [1] and in series [3] was “Non-toxic” each time.
On to `COc1ccc(C2=C(c3ccc(OC)c(OC)c3)C(=O)N(C(=O)N3CCN(CC(=O)c4ccc(S(C)(=O)=O)cc4)CC3)C2=O)cc1OC`, for which the Ratio IC50 in the series filed under Homo sapiens was determined as 1. The Activity entry in series [1] and in series [3] was “Non-toxic” throughout.
`COc1ccc(C2=C(c3ccc(OC)c(OC)c3)C(=O)N(C(=O)Nc3ccc4c(c3)C(=O)OC4)C2=O)cc1OC`: in the series listed under Homo sapiens, the Ratio IC50 was found to be 1.1. Further, the Activity entry in series [1] and in series [3] was “Non-toxic” throughout.

By solubility is commonly meant the concentration that dissolves in the medium under given conditions.
